# Reference: patent US20250339409A1, “USES OF PAN BET INHIBITORS” (VYNE THERAPEUTICS INC., priority 2021, published 2025)
# Values joined by “and” are separate entries in the source; they are usually repeats but may differ in a detail not shown here. Identical values can stand only once. Marks after values point to notes of the source that are not given here.
# Tested on: anti collagen antibodies induced arthritis (ACAIA)
# Assay: Anti collagen antibodies induced arthritis (ACAIA) in mice, intra-articular treatment: paw thickness, arthritis clinical score, body weight;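 also: mouse arthritis induced by IV anti-collagen mAb on day 0 plus IP LPS on day 4, with body weight, caliper paw thickness and 0-4 paw score tracked against a day 0 baseline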
# Conditions: for Average clinical score per day (untreated): untreated leg
# [1] = Dexamethasone 1 mg/kg IA (Group 7), Av
# [2] = Dexamethasone 1 mg/kg IA (Group 7), individual animals
# [3] = Dexamethasone 1 mg/kg IP (Group 6), Av
# [4] = Dexamethasone 1 mg/kg IP (Group 6), individual animals
structure (smiles),measurement,setting,value
"C[C@@H]1C[C@H]2[C@@H]3CCC4=CC(=O)C=C[C@]4(C)[C@@]3(F)[C@@H](O)C[C@]2(C)[C@@]1(O)C(=O)CO [dexamethasone, Dexamethasone, reference compound]",Paw thickness of treated leg (Avg.),"1 mg/kg IP (Group 6), Day 6",2.25** mm
same,Percent change of weight per day (Av),"1 mg/kg IP (Group 6), Day 6",87.71%
same,Percent change of weight per day (individual animal),"1 mg/kg IP (Group 6), Day 6",88.44% and 86.7% and 89.66% and 86.18% and 86.85% and 89.74% and 86.41%
same,"Δ clinical score untreated -treated, Avg. Delta","1 mg/kg IP (Group 6), Day 6",0.00 points
same,Clinical score of treated leg (Avg.),"1 mg/kg IP (Group 6), Day 7",0.00** points
same,Paw thickness Avg. Delta untreated -treated,"1 mg/kg IP (Group 6), Day 7",0.03 mm
same,Paw thickness of treated leg (Avg.),"1 mg/kg IP (Group 6), Day 7",2.16**** mm
same,Percent change of weight per day (Av),"1 mg/kg IP (Group 6), Day 7",88.39%
same,Percent change of weight per day (individual animal),"1 mg/kg IP (Group 6), Day 7",89.45% and 85.22% and 88.67% and 87.5576% and 88.73% and 90.26% and 88.83%
same,"Δ clinical score untreated -treated, Avg. Delta","1 mg/kg IP (Group 6), Day 7",0.00 points
same,Clinical score of treated leg (Avg.),"1 mg/kg IP (Group 6), Day 8",0.00** points
same,Paw thickness Avg. Delta untreated -treated,"1 mg/kg IP (Group 6), Day 8",0.10 mm
same,Percent change of weight per day (Av),"1 mg/kg IP (Group 6), Day 8",88.85%
same,Percent change of weight per day (individual animal),"1 mg/kg IP (Group 6), Day 8",89.95% and 85.22% and 87.68% and 91.24% and 88.73% and 91.28% and 87.86%
same,"Δ clinical score untreated -treated, Avg. Delta","1 mg/kg IP (Group 6), Day 8",0.00 points
same,Clinical score of treated leg (Avg.),"1 mg/kg IP (Group 6), Day 10",0.14* points
same,Paw thickness Avg. Delta untreated -treated,"1 mg/kg IP (Group 6), Day 10",−0.04 mm
same,Paw thickness of treated leg (Avg.),"1 mg/kg IP (Group 6), Day 10",2.09** mm
same,Percent change of weight per day (Av),"1 mg/kg IP (Group 6), Day 10",88.77%
same,Percent change of weight per day (individual animal),"1 mg/kg IP (Group 6), Day 10",89.45% and 86.7% and 88.18% and 91.24% and 88.26% and 89.23% and 88.35%
same,"Δ clinical score untreated -treated, Avg. Delta","1 mg/kg IP (Group 6), Day 10",−0.14 points
same,Clinical score of treated leg (Avg.),"1 mg/kg IP (Group 6), Day 12",0.00* points
same,Paw thickness Avg. Delta untreated -treated,"1 mg/kg IP (Group 6), Day 12",−0.02 mm
same,Percent change of weight per day (Av),"1 mg/kg IP (Group 6), Day 12",90.11%
same,Percent change of weight per day (individual animal),"1 mg/kg IP (Group 6), Day 12",91.9598% and 88.18% and 91.133* percent and 90.78% and 90.14% and 89.23% and 89.32%
same,"Δ clinical score untreated -treated, Avg. Delta","1 mg/kg IP (Group 6), Day 12",0.00 points
same,"Weight per day, Baseline",[1],19.8 g
same,"Weight per day, Day 3",[1],19.5 g
same,"Weight per day, Day 4",[1],18.8 g
same,"Weight per day, Day 5",[1],18.1 g
same,"Weight per day, Day 6",[1],17.5 g
same,"Weight per day, Day 7",[1],17.4 g
same,"Weight per day, Day 8",[1],17.7 g
same,"Weight per day, Day 10",[1],18.3 g
same,"Weight per day, Baseline",[2],19.1 g and 20.3 g and 18.6 g and 19.2 g and 20.2 g (2×) and 20.9 g
same,"Weight per day, Day 3",[2],19.1 g (2×) and 19.8 g and 17.8 g and 19.9 g and 19.7 g and 20.6 g
same,"Weight per day, Day 4",[2],18.7 g and 19.6 g and 17.3 g and 17.9 g and 19.2 g and 19.1 g and 20.1 g
same,"Weight per day, Day 5",[2],17.3 g and 18.5 g and 16.5 g and 19.2 g and 18.2 g and 17.7 g and 19 g
same,"Weight per day, Day 6",[2],16.6 g and 17.8 g and 16 g and 19.6 g and 17.7 g and 17.1 g and 17.9 g
same,"Weight per day, Day 7",[2],17 g and 16.9 g and 16 g and 20 g and 17.4 g and 15.8 g and 18.7 g
same,"Weight per day, Day 8",[2],17.2 g and 16.9 g and 16.3 g and 20.1 g and 18 g and 16.4 g and 18.9 g
same,"Weight per day, Day 10",[2],17.4 g and 18.8 g and 16.3 g and 20 g and 18.2 g (2×) and 19.4 g
same,"Weight per day, Baseline",[3],20.5 g
same,"Weight per day, Day 3",[3],19.6 g
same,"Weight per day, Day 4",[3],19.8 g
same,"Weight per day, Day 5",[3],18.1 g
same,"Weight per day, Day 6",[3],18 g
same,"Weight per day, Day 7",[3],18.1 g
same,"Weight per day, Day 8",[3],18.2 g
same,"Weight per day, Day 10",[3],18.2 g
same,"Weight per day, Baseline",[4],19.9 g and 20.3 g (2×) and 21.7 g and 21.3 g and 19.5 g and 20.6 g
same,"Weight per day, Day 3",[4],18.9 g and 19.1 g and 19.3 g and 20.9 g and 20.5 g and 18.8 g and 19.8 g
same,"Weight per day, Day 4",[4],19.2 g and 19.4 g and 19.7 g and 20.9 g and 20.6 g and 19 g and 19.9 g
same,"Weight per day, Day 5",[4],17.6 g and 17.5 g (2×) and 18.6 g and 18.7 g and 18.5 g and 18.4 g
same,"Weight per day, Day 6",[4],17.6 g (2×) and 18.2 g and 18.7 g and 18.5 g and 17.5 g and 17.8 g
same,"Weight per day, Day 7",[4],17.8 g and 17.3 g and 18 g and 19 g and 18.9 g and 17.6 g and 18.3 g
same,"Weight per day, Day 8",[4],17.9 g and 17.3 g and 17.8 g (2×) and 19.8 g and 18.9 g and 18.1 g
same,"Weight per day, Day 10",[4],17.8 g and 17.6 g and 17.9 g and 19.8 g and 18.8 g and 17.4 g and 18.2 g
same,"average arthritis score, treated limbs","intra-articular 1 mg/kg, day 12, scale 0-4",1.3
same,Average clinical score per day (untreated),"1 mg/kg IA (Group 7), Baseline",0.00 points
same,Average clinical score per day (untreated),"1 mg/kg IA (Group 7), Day 3",0.00 points
same,Average clinical score per day (untreated),"1 mg/kg IA (Group 7), Day 4",0.00 points
same,Average clinical score per day (untreated),"1 mg/kg IA (Group 7), Day 5",0.00 points
same,Average clinical score per day (untreated),"1 mg/kg IA (Group 7), Day 6",0.57 points
same,Average clinical score per day (untreated),"1 mg/kg IA (Group 7), Day 7",0.86 points
same,Average clinical score per day (untreated),"1 mg/kg IA (Group 7), Day 8",1.71 points
same,Average clinical score per day (untreated),"1 mg/kg IA (Group 7), Day 10",1.57 points
same,Average clinical score per day (untreated),"1 mg/kg IA (Group 7), Day 12",1.71 points
same,Average clinical score per day (untreated),"1 mg/kg IP (Group 6), Baseline",0.00 points
same,Average clinical score per day (untreated),"1 mg/kg IP (Group 6), Day 3",0.00 points
same,Average clinical score per day (untreated),"1 mg/kg IP (Group 6), Day 4",0.00 points
same,Average clinical score per day (untreated),"1 mg/kg IP (Group 6), Day 5",0.00 points
same,Average clinical score per day (untreated),"1 mg/kg IP (Group 6), Day 6",0.00 points
same,Average clinical score per day (untreated),"1 mg/kg IP (Group 6), Day 7",0.00 points
same,Average clinical score per day (untreated),"1 mg/kg IP (Group 6), Day 8",0.00 points
same,Average clinical score per day (untreated),"1 mg/kg IP (Group 6), Day 10",0.00 points
same,Average clinical score per day (untreated),"1 mg/kg IP (Group 6), Day 12",0.00 points
